The nature of experiment [1]: Function blocking score: total percent inhibition over migration, invasion, inflammation and fibrosis assays divided by number of assays. Format: cell-based. The conditions noted are these: total percent inhibition for all assays tested divided by number of assays. On the procedure:
As documented in the Examples hereinabove, a variety of cyclized peptides were produced that contained the HA-binding domain 1 (HABD1), HA-binding domain 2 (HABD2), or both HABD1 and HABD2. These peptides were evaluated for helicity, direct HA binding and in a number of cell-based bioassays (effects on migration, invasion, NFkB activation, and TGFβ1 production) that are relevant to inflammation and fibrosis. The relationships amongst helicity, HA-binding, and biofunction were evaluated. Peptides were divided into three groups for this analysis: (1) peptides containing HABD1 (“HABD1”); (2) peptides containing HABD2 (“HABD2”); and peptides containing most or all of HABD1 and all of HABD2 (“HABD1+HABD2”). R^2 values were calculated to quantify the relationships between helicity, HA-binding, and biofunction were evaluated.
The results of this analysis for the HABD1 peptides are shown below in Tables 15 and 16. Table 16 provides a function blocking scores for each of the tested peptides and provides R^2 values showing the relationship between HA binding and helicity (“HA binding vs. CD”), HA binding and function-blocking score (“HA binding vs. FBS”) and helicity vs. function-blocking score (“CD vs. FBS”). The same type of summaries are provided for the HABD2 peptides in Tables 17 and 18 below, and for the HABD1+HABD2 peptides in Tables 19 and 20 below.
Function blocking scores were calculated as the total percent inhibition achieved by the peptide for all assays the peptides were tested in, divided by the number of assays. Assays included migration, invasion, inflammation and fibrosis assays. Not all peptides were tested all of the assays. All peptides were included for deriving R^2 values (Pearson's formula).

A further experiment concerns NF-κB. The experiment can be described thus: Inflammation assay: NF-κB inducible SEAP reporter in RAW-Blue macrophages stimulated with PAM3CSK4. The format is cell-based, murine. The conditions noted are these: for Inflammation (% Inhib.): % inhibition relative to positive control. The method, then: Compounds 132, 133, 135, 150, 152, 157-161, 265-269, 275, 277, and 278 were evaluated for their ability to inhibit inflammation. To determine the effect of the peptides on inflammation, commercially available murine RAW 264.7 macrophages carrying a secreted embryonic alkaline phosphatase (SEAP) reporter that is inducible by NF-κB (RAW-Blue; InvivoGen, San Diego, Calif., USA) were used. Cells were grown to 80% confluence in DMEM containing 4.5 g/L glucose, 10% heat-inactivated fetal bovine serum, 2 mM L-glutamine, 50 μg/mL penicillin/streptomycin, 100 μg/mL Normocin (InvivoGen) at 37° C. in 5% CO2. For peptide screening experiments, cells were scraped in growth medium, counted, and plated to flat-bottom 96-well plates at a density of 5×10^4 cells/well either in the presence or absence (control) of 200 ng/mL TLR1/TLR2 agonist PAM3CSK4 (InvivoGen). Peptides were added in 6 replicate wells at a dose of 10 ng/mL in the presence of PAM3CSK4. After 18 hours of stimulation, SEAP concentrations (indicating NF-κB activity) were measured in the supernatants collected from the RAW-Blue cells using QUANTI-BLUE reagent (InvivoGen). After 20 minutes of incubation at 37° C., SEAP levels were determined using spectrophotometry at a wavelength of 630 nm.
Values are the mean and SDM of n=3 replicates. *p<0.05 and ***p<0.001 compared to +PAM3. In FIGS. 44 and 45, where bars are labeled with two compound numbers (“133/150” and “135/152”) this means that the data were pooled for the indicated compounds, i.e., for the non-acetylated and acetylated versions of the indicated peptides.

The subject of experiment [2] is RHAMM-overexpressing (LR21) cells. The experiment can be described thus: Cell invasion assay (Boyden chamber with MATRIGEL, Chemicon ECM555). The format is cell-based. Particulars: for Invasion (% inhib.): % inhibition relative to positive control, 10 ng/mL of peptide. The method, then: Compounds 132, 133, 135, 150-153, 156, 265-269, and 275-278 were evaluated for their ability to inhibit cellular invasion. Invasion assays were performed using Chemicon Assay Kits ECM555 (Invasion); Billerica, Mass., USA) according to the manufacturer's protocol. Invasion assays are performed in an identical manner as the migration assays described above in Example 5, except that cells are required to invade through a layer of extracellular matrix (MATRIGEL) coating the filter that separates the upper and lower Boyden chambers. Briefly, sub-confluent cultures of RHAMM-overexpressing (LR21) cells were serum starved overnight before plating 7.5×10^4 cells in the upper chamber of a Boyden chamber either in the presence or absence of 10 ng/mL of peptide. 30% fetal bovine serum in DMEM was used as the chemo-attractant in the lower chamber. The number of cells that had crossed the membrane after 20 hours was assessed using the CYQUANT® GR Dye and lysis buffer solution provided in the kit. Fluorescence was measured with a fluorescent plate reader using 480/520 nm filter set.
Values the mean and SDM of n=3 replicates. *p<0.05, **p<0.01, ***p<0.001 All statistics compared to 30% serum control. In FIG. 49, where bars are labeled with two compound numbers (“152/135”) this means that the data were pooled for the indicated compound, i.e., for the non-acetylated and acetylated versions of the indicated peptide.

Bridges are numbered along the chain shown (N, C = ends).

Regarding “Ac-(cyclo-7-11, cyclo-28-32)-NLKQKI[EHVVK]LKDENSQLKSEVSKLR[EQLVK]RKQN-NH2 (Ac-NLKQKIEHVVKLKDENSQLKSEVSKLREQLVKRKQN-NH2; lactam 7-11, 28-32; SMILES CC[C@H](C)[C@H](NC(=O)[C@H](CCCCN)NC(=O)[C@H](CCC(N)=O)NC(=O)[C@H](CCCCN)NC(=O)[C@H](CC(C)C)NC(=O)[C@H](CC(N)=O)NC(C)=O)C(=O)N[C@H]1CCC(=O)NCCCC[C@@H](C(=O)N[C@@H](CC(C)C)C(=O)N[C@@H](CCCCN)C(=O)N[C@@H](CC(=O)O)C(=O)N[C@@H](CCC(=O)O)C(=O)N[C@@H](CC(N)=O)C(=O)N[C@@H](CO)C(=O)N[C@@H](CCC(N)=O)C(=O)N[C@@H](CC(C)C)C(=O)N[C@@H](CCCCN)C(=O)N[C@@H](CO)C(=O)N[C@@H](CCC(=O)O)C(=O)N[C@H](C(=O)N[C@@H](CO)C(=O)N[C@@H](CCCCN)C(=O)N[C@@H](CC(C)C)C(=O)N[C@@H](CCCNC(=N)N)C(=O)N[C@H]2CCC(=O)NCCCC[C@@H](C(=O)N[C@@H](CCCNC(=N)N)C(=O)N[C@@H](CCCCN)C(=O)N[C@@H](CCC(N)=O)C(=O)N[C@@H](CC(N)=O)C(N)=O)NC(=O)[C@H](C(C)C)NC(=O)[C@H](CC(C)C)NC(=O)[C@H](CCC(N)=O)NC2=O)C(C)C)NC(=O)[C@H](C(C)C)NC(=O)[C@H](C(C)C)NC(=O)[C@H](Cc2c[nH]cn2)NC1=O) [Compound 278]”, the “Function blocking score (FBS)” value in experiment [1] is given as 12. In the experiment on NF-κB, the “Inflammation (% Inhib.)” value amounted to 0 % Inhib. The “Invasion (% inhib.)” value in experiment [2] is given as 0 % inhib.
For the substance “Ac-(cyclo-6,10)-NLKQK[EKHVK]KLKDE-NH2 (Ac-NLKQKEKHVKKLKDE-NH2; lactam 6-10; SMILES CC(=O)N[C@@H](CC(N)=O)C(=O)N[C@@H](CC(C)C)C(=O)N[C@@H](CCCCN)C(=O)N[C@@H](CCC(N)=O)C(=O)N[C@@H](CCCCN)C(=O)N[C@H]1CCC(=O)NCCCC[C@@H](C(=O)N[C@@H](CCCCN)C(=O)N[C@@H](CC(C)C)C(=O)N[C@@H](CCCCN)C(=O)N[C@@H](CC(=O)O)C(=O)N[C@@H](CCC(=O)O)C(N)=O)NC(=O)[C@H](C(C)C)NC(=O)[C@H](Cc2c[nH]cn2)NC(=O)[C@H](CCCCN)NC1=O) [Compound 159]”, the “Function blocking score (FBS)” value in experiment [1] turned out to be 17. For the same substance, in the experiment with NF-κB, the “Inflammation (% Inhib.)” value was 0 % Inhib.
On to “Ac-(cyclo-10-14, cyclo-15-19)-KIKHVVKLK[KENSE][EKSEK]SKLRSQLVKRK-NH2 [Compound 269]”, for which the “Function blocking score (FBS)” value in experiment [1] is listed as 13. For the same substance, in the experiment on NF-κB, the “Inflammation (% Inhib.)” value is listed as 0 % Inhib. Besides, the “Invasion (% inhib.)” value in experiment [2] was 0 % inhib.
Consider “Ac-(cyclo-8,12)-NLKQKIK[EVVKK]KDE-NH2 (Ac-NLKQKIKEVVKKKDE-NH2; lactam 8-12; SMILES CC[C@H](C)[C@H](NC(=O)[C@H](CCCCN)NC(=O)[C@H](CCC(N)=O)NC(=O)[C@H](CCCCN)NC(=O)[C@H](CC(C)C)NC(=O)[C@H](CC(N)=O)NC(C)=O)C(=O)N[C@@H](CCCCN)C(=O)N[C@H]1CCC(=O)NCCCC[C@@H](C(=O)N[C@@H](CCCCN)C(=O)N[C@@H](CC(=O)O)C(=O)N[C@@H](CCC(=O)O)C(N)=O)NC(=O)[C@H](CCCCN)NC(=O)[C@H](C(C)C)NC(=O)[C@H](C(C)C)NC1=O) [Compound 161]”, for which the “Function blocking score (FBS)” value in experiment [1] is on record as 22. In addition, the “inhibition of inflammation (SEAP / NF-κB activity, in words)” value in the experiment with NF-κB (10 ng/mL peptide with 200 ng/mL PAM3CSK4, 18 hours, compared to +PAM3) is listed as “significantly inhibited inflammation”. Further, the “Inflammation (% Inhib.)” value with NF-κB is given as 6 % Inhib.
On to “Ac-(cyclo-7,11)-NLKQKI[EHVVK]LKDE-NH2 (Ac-NLKQKIEHVVKLKDE-NH2; lactam 7-11; SMILES CC[C@H](C)[C@H](NC(=O)[C@H](CCCCN)NC(=O)[C@H](CCC(N)=O)NC(=O)[C@H](CCCCN)NC(=O)[C@H](CC(C)C)NC(=O)[C@H](CC(N)=O)NC(C)=O)C(=O)N[C@H]1CCC(=O)NCCCC[C@@H](C(=O)N[C@@H](CC(C)C)C(=O)N[C@@H](CCCCN)C(=O)N[C@@H](CC(=O)O)C(=O)N[C@@H](CCC(=O)O)C(N)=O)NC(=O)[C@H](C(C)C)NC(=O)[C@H](C(C)C)NC(=O)[C@H](Cc2c[nH]cn2)NC1=O) [Compound 160]”, for which the “Function blocking score (FBS)” value in experiment [1] was 0. The “Inflammation (% Inhib.)” value in the experiment with NF-κB is 0 % Inhib.
The like results for “Ac-(cyclo-5,9)-NLKQ[EIKHK]VKLKDE-NH2 (Ac-NLKQEIKHKVKLKDE-NH2; lactam 5-9; SMILES CC[C@H](C)[C@@H]1NC(=O)[C@@H](NC(=O)[C@H](CCC(N)=O)NC(=O)[C@H](CCCCN)NC(=O)[C@H](CC(C)C)NC(=O)[C@H](CC(N)=O)NC(C)=O)CCC(=O)NCCCC[C@@H](C(=O)N[C@H](C(=O)N[C@@H](CCCCN)C(=O)N[C@@H](CC(C)C)C(=O)N[C@@H](CCCCN)C(=O)N[C@@H](CC(=O)O)C(=O)N[C@@H](CCC(=O)O)C(N)=O)C(C)C)NC(=O)[C@H](Cc2c[nH]cn2)NC(=O)[C@H](CCCCN)NC1=O) [Compound 158]” were, in that order, 22 and 0 % Inhib.
On to “Ac-(cyclo-7,11)-VSKLRS[ELVKK]KQN-NH2 (Ac-VSKLRSELVKKKQN-NH2; lactam 7-11; SMILES CC(=O)N[C@H](C(=O)N[C@@H](CO)C(=O)N[C@@H](CCCCN)C(=O)N[C@@H](CC(C)C)C(=O)N[C@@H](CCCNC(=N)N)C(=O)N[C@@H](CO)C(=O)N[C@H]1CCC(=O)NCCCC[C@@H](C(=O)N[C@@H](CCCCN)C(=O)N[C@@H](CCC(N)=O)C(=O)N[C@@H](CC(N)=O)C(N)=O)NC(=O)[C@H](CCCCN)NC(=O)[C@H](C(C)C)NC(=O)[C@H](CC(C)C)NC1=O)C(C)C) [Compound 153]”, for which, in experiment [1], the “Function blocking score (FBS)” value was 29. Moreover, the “inhibition of cellular invasion (in words)” value in experiment [2] (10 ng/mL peptide, 20 hours, compared to 30% serum control) was “significantly inhibited cellular invasion”. In experiment [2], the “Invasion (% inhib.)” value came out at 58 % inhib.
In the case of “Ac-(cyclo-5,9)-VSKL[ESQLK]KRKQN-NH2 (Ac-VSKLESQLKKRKQN-NH2; lactam 5-9; SMILES CC(=O)N[C@H](C(=O)N[C@@H](CO)C(=O)N[C@@H](CCCCN)C(=O)N[C@@H](CC(C)C)C(=O)N[C@H]1CCC(=O)NCCCC[C@@H](C(=O)N[C@@H](CCCCN)C(=O)N[C@@H](CCCNC(=N)N)C(=O)N[C@@H](CCCCN)C(=O)N[C@@H](CCC(N)=O)C(=O)N[C@@H](CC(N)=O)C(N)=O)NC(=O)[C@H](CC(C)C)NC(=O)[C@H](CCC(N)=O)NC(=O)[C@H](CO)NC1=O)C(C)C) [Compound 151]”, the “Function blocking score (FBS)” value in experiment [1] was determined as 20. In experiment [2], the “Invasion (% inhib.)” value turned out to be 0 % inhib.
With “Ac-(cyclo-4,8)-NLK[EKIKK]VVKLKDE-NH2 (Ac-NLKEKIKKVVKLKDE-NH2; lactam 4-8; SMILES CC[C@H](C)[C@@H]1NC(=O)[C@H](CCCCN)NC(=O)[C@@H](NC(=O)[C@H](CCCCN)NC(=O)[C@H](CC(C)C)NC(=O)[C@H](CC(N)=O)NC(C)=O)CCC(=O)NCCCC[C@@H](C(=O)N[C@H](C(=O)N[C@H](C(=O)N[C@@H](CCCCN)C(=O)N[C@@H](CC(C)C)C(=O)N[C@@H](CCCCN)C(=O)N[C@@H](CC(=O)O)C(=O)N[C@@H](CCC(=O)O)C(N)=O)C(C)C)C(C)C)NC(=O)[C@H](CCCCN)NC1=O) [Compound 157]”, the “Function blocking score (FBS)” value in experiment [1] worked out at 8.6. The “Inflammation (% Inhib.)” value in the experiment on NF-κB is 0 % Inhib.

For the origin of these results see patent US10562935B2, “Stapled peptides and uses thereof” (London Health Sciences Centre Research Inc., priority 2015, dated 2020).
